Laboratory results from patent publication US10189875B2, “Anti-cancer peptide and use thereof” (ENSOL BIOSCIENCES INC., priority 2015, dated 2019).

Key:
[1] = system: SNU-790 thyroid cancer cells; assay: Transwell invasion assay (TGF-beta1-induced invasion of cancer cells); assay type: cell-based; conditions: invasion increased by 10 ng/ml TGF-beta1; peptide at 40 and 100 [1M; 2 days culture; FIG. 1
Description: Whether the invasion of cancer cells was inhibited by the peptide of Example 1 was evaluated experimentally. Specifically, in order to evaluate the effect of the peptide of Example 1 on inhibiting the invasion of cancer cells, a Transwell invasion assay was performed. Growth factor reduced Matrigel (BD Biosciences, Franklin Lakes, N.J., USA) was diluted at 1:1 with a medium [RPMI 1640 medium (Welgene Inc., Korea)] and 70 fek thereof was added to the top chamber of the Transwell insert (Corning cat#3422, Tewksbury Mass., USA), followed by a coating process for 1 hr in a CO2 incubator at 37° C. 500 fek of a medium [RPMI 1640 medium (Welgene Inc., Korea)] containing 10% fetal bovine serum (FBS, Cellgro cat#35-015-CV, USA) was added to the bottom chamber, after which the test group was added with 10 ng/ml of TGF-betal (PromoKine, Germany). The coated top chamber was mounted to the bottom chamber, and 100 ick of RPMI 1640 medium containing 0.5% FBS with 20000 SNU-790 thyroid cancer cells (Korean Cell Line Bank) was added to the top chamber. In this way, a negative control group and two test groups were prepared. […]
The test groups, the control group, and the negative control group were cultured in a CO2 incubator for 2 days at 37° C. […] Four randomly selected regions were photographed and the number of cells in these regions was counted, averaged and graphed. […]

[2] = system: 4T1 mouse breast cancer cells; assay: Lung metastasis model with 4T1 cells, count of metastatic tumor nodules; assay type: in vivo, female BALB/c mice; conditions: FIG. 2; for number of tumor nodules (lung): caudal vein, three times a week for three weeks, autopsy on 21st day, vs negative control
Description: Whether the metastasis of cancer cells was inhibited by the peptide of Example 1 was evaluated experimentally. Specifically, in order to evaluate the inhibitory effect of the peptide of Example 1 on the metastasis of cancer cells, testing was performed using a lung metastasis model with 4T1 mouse breast cancer cells (ATCC CRL-2539, USA). The peptide of Example 1 was injected into the caudal vein of the tail of female BALB/c mice (SPF, SLC/Japan). The test group was divided into three groups according to the administration concentration; low concentration [40/2 g/head], middle concentration [80/2 g/head], and high concentration 1120, ug/headl. The negative control group was treated in the same manner as the test group, with the exception that the peptide of Example 1 was not administered. On the day after first administration, 4T1 cells (1.5×10^4 cells/head) were injected into the mouse tail caudal vein. After 1 hr, the peptide of Example 1 was secondarily administered. The administration of the peptide was performed three times a week (Monday, Wednesday, and Friday) for a total of three weeks ranging from the second administration day to the final administration day. The weight of the mouse was measured two times a week, and an autopsy was performed on the 21st day after the injection of cancer cells. The lung tissue was excised, stained with a Bouin's solution, and fixed, and then the number of metastatic tumor nodules was counted. Also, a group (a normal group), treated in the same manner as the test group, was prepared as a control group, with the exception that neither the peptide of Example 1 nor 4T1 cells were added. The graph of FIG. 2 is plotted with an x-axis for each group and a y-axis for the number of tumor nodules. As such, n designates the number of individuals in each group, and P designates the significance probability.

[3] = system: 4T1 mouse breast cancer cells; assay: Survival rate in the 4T1 lung metastasis model; assay type: in vivo, female BALB/c mice; conditions: FIG. 3
Description: Whether the metastasis of cancer cells was inhibited by the peptide of Example 1 was evaluated experimentally. Specifically, in order to evaluate the inhibitory effect of the peptide of Example 1 on the metastasis of cancer cells, testing was performed using a lung metastasis model with 4T1 mouse breast cancer cells (ATCC CRL-2539, USA). The peptide of Example 1 was injected into the caudal vein of the tail of female BALB/c mice (SPF, SLC/Japan). The test group was divided into three groups according to the administration concentration; low concentration [40/2 g/head], middle concentration [80/2 g/head], and high concentration 1120, ug/headl. The negative control group was treated in the same manner as the test group, with the exception that the peptide of Example 1 was not administered. […] The weight of the mouse was measured two times a week, and an autopsy was performed on the 21st day after the injection of cancer cells. The lung tissue was excised, stained with a Bouin's solution, and fixed, and then the number of metastatic tumor nodules was counted. […]
The anticancer effect of the peptide of Example 1 was evaluated experimentally. Specifically, in order to evaluate the effect of the peptide of Example 1 on surviving individuals suffering from cancer, the survival rate was measured using an animal model prepared in the same manner as in Example 3. […]

[4] = system: B16-BL6 mouse melanoma cells; assay: Survival rate in animal model with B16-BL6 melanoma cells; assay type: in vivo, male C57BL/6J mice; conditions: FIG. 4
Description: The anticancer effect of the peptide of Example 1 was evaluated experimentally. Specifically, in order to evaluate the effect of the peptide of Example 1 on surviving individuals suffering from cancer, the survival rate was measured using an animal model with B16-BL6 mouse melanoma cells (Korean Cell Line Bank, Korea).
B16-BL6 cells {1×10^5 cells/head} were subcutaneously injected into 7-week-old male C57BL/6J mice (Orientbio Inc., Korea). After one week, the peptide of Example 1 was intraperitoneally administered. The test group was divided into three groups according to the administration concentration; low concentration {40, ttg/head}, middle concentration {80, ttg/head}, and high concentration {120, ttg/head}. The negative control group was treated in the same manner as the test group, with the exception that the peptide of Example 1 was not administered. The administration was repeated two times a week for two weeks from the first administration day and then once a week for an additional four weeks, and the peptide was administered a total of eight times. To measure the survival rate, the survival rate for each group was observed and recorded. In the graph of FIG. 4, showing the survival rate, the x-axis represents the number of days since injection of the cancer cells, and the y-axis represents the survival rate (%). […]

[5] = low, middle and high concentration groups compared

Substance: QLHLD [Example 1]
- invasion of cancer cells (number of invading cells) [1]: inhibited in a concentration-dependent manner
- number of tumor nodules (lung) ([2]; high concentration (120 ug/head)): significantly (P<0.001) reduced
- inhibitory effect of cancer metastasis, comparison among dose groups [2, 5]: highest in the test group in which the peptide was administered at the middle concentration
- number of tumor nodules (lung) ([2]; middle concentration [80/2 g/head]): significantly (P<0.001) reduced
- survival rate, comparison among dose groups [3, 5]: highest in the test group in which the peptide was administered at the middle concentration
- survival rate ([3]; middle and high concentrations, caudal vein, vs negative control): some individuals survived even after the death of the negative control group
- survival rate, comparison among dose groups [4, 5]: highest in the test group in which the peptide was administered at the middle concentration
- survival rate ([4]; test groups (low 40, middle 80, high 120 ttg/head), intraperitoneal, eight administrations, vs negative control): some individuals survived even after the death of the negative control group
